# Measured values reported in US20240066045A1, “SEMICARBAZONE-BASED SAPONIN CONJUGATE” (priority 2020, published 2024).
# How the values were obtained:
# [1] = test system: human red blood cells (RBC); experiment: Haemolysis assay; assay type: cell-based; settings: fresh human red blood cells
# Description: Red blood cells (RBCs) were isolated from a buffy coat using a Ficoll gradient. The obtained RBC pellet (˜4-5 ml) was washed 2× with 50 ml DPBS (without Ca^2+/Mg^2+, PAN-Biotech GmbH). Cells were pelleted by centrifugation for 10 min, 800×g at RT. RBC were counted and resuspended at 500.000.000 c/ml in DPBS (without Ca^2+/Mg^2+), based on total cell count. SO1861-linker dilutions were prepared in DPBS (with Ca^2+/Mg^2+, PAN-Biotech GmbH), at 1.11× final strength. For positive lysis control a 0.02% Triton-X100 solution was prepared in DPBS^+/+. Of all compound solutions 135 μl was dispensed/well in a 96 well V-bottom plate. To this 15 μl RBC suspension was added and mixed shortly (10 sec—600 rpm). The plate was incubated 30 min at RT, with gentle agitation. Afterwards the plate was spun for 10 min at 800×g to pellet the RBC and 100-120 μl supernatant was transferred to a standard 96 wp. Subsequently, the OD at 405 nm was measured on a Thermo Scientific Multiskan FC plate reader (Thermo Scientific). For quantification the background signal of ‘DPBS^+/+ only’ wells was subtracted from all other wells before the percentage of hemolysis was calculated in comparison to 0.02% Triton-X100, by dividing the background corrected signal of treated wells over the background corrected signal of the 0.02% Triton-X100 wells (×100).
# A431 cells [2] = experiment: Cell killing assay (MTS): saponin titrated on fixed non-effective concentration of targeted toxin (endosomal escape enhancing activity); assay type: cell-based
# Description: (§1) Cell viability was determined by an MTS-assay, performed according to the manufacturer's instruction (CellTiter 96® AQueous One Solution Cell Proliferation Assay, Promega). Briefly, the MTS solution was diluted 20× in DMEM without phenol red (PAN-Biotech GmbH) supplemented with 10% FBS (PAN-Biotech GmbH). The cells were washed once with 200 μL PBS per well, after which 100 μL diluted MTS solution was added per well. The plate was incubated for approximately 20-30 minutes at 37° C. Subsequently, the optical density at 492 nm was measured on a Thermo Scientific Multiskan FC plate reader (Thermo Scientific). For quantification the background signal of ‘medium only’ wells was subtracted from all other wells, before the ratio of untreated/treated cells was calculated, by dividing the background corrected signal of untreated wells over the background corrected signal of the treated wells.
# HeLa cells [3] = experiment: as above; assay type: cell-based; settings: read-out: IC50 nM (Activity; + 5 pM EGFdianthin); HeLa cells; + 5 pM EGFdianthin
# Description: as §1
# A431 cells [4] = experiment: Cell toxicity (MTS), saponin alone; assay type: cell-based
# Description: as §1
# HeLa cells [5] = experiment: Cell toxicity (MTS), saponin alone; assay type: cell-based
# Description: as §1
# [6] = CMC determination (ANS fluorescence); assay type: physicochemical
# Description: The critical micellar concentration (CMC) of saponins derived from Saponaria Officinalis (SO) was determined by the method of DeVendittis et al. (www.sciencedirect.com/science/article/pii/0003269781900063, doi.org/10.1016/0003-2697(81)90006-3, Analytical Biochemistry, Volume 115, Issue 2, August 1981, Pages 278-286) as follows: The emission spectrum of 8-Anilinonaphthalene-1-sulfonic acid (ANS) in either purified water (MQ) or PBS (Dulbecco's PBS+/+) was determined at dry weight concentrations of saponins ranging from 1 to 1400 μM to cover the range below and above the CMC. Above the CMC, the fluorescence yield of ANS increases and the wavelength of maximum emission decreases due to portioning of the fluorescent dye into micelles. Fluorescence yields were recorded on a Fluoroskan Ascent FL (Thermo Scientific) at an excitation wavelength of 355 nm, and an emission wavelength of 460 nm. 6 μg at a concentration of 75.86 μM of ANS were used per sample and measurement.
# HSP27 mRNA in A431 cells = experiment: HSP27 gene silencing (HSP27 mRNA expression, qPCR); assay type: cell-based; settings: saponin titrated + 50 nM Trastuzumab-HSP27BNA
# Description: RNA from cells was isolated and analysed according to standard protocols (Biorad).
Compound,IC50 [1],"IC50 (A431 cells [2]; + 50 pM Trastuzumab-saporin, read-out: IC50 cell killing)","IC50 (A431 cells [2]; read-out: IC50 nM (Activity; + 5 pM EGFdianthin), + 5 pM EGFdianthin)",IC50 (HeLa cells [3]),IC50 (A431 cells [4]),IC50 (HeLa cells [5]),CMC ([6]; listed as SO1861-Semicarbazone Mal),CMC ([6]; listed as SO1861-semicarbazone Mal),IC50 (HSP27 mRNA in A431 cells)
CC(=O)OC1C(C)OC(OC2C(C)OC(OC(=O)[C@]34CCC(C)(C)CC3C3=CCC5[C@@]6(C)CC[C@H](OC7OC(C(=O)O)C(O)C(OC8OCC(O)C(O)C8O)C7OC7OC(CO)C(O)C(O)C7O)[C@@](C)(/C=N/NC(=O)CCCCCN7C(=O)C=CC7=O)C6CC[C@@]5(C)[C@]3(C)C[C@H]4O)C(OC3OC(C)C(OC4OCC(O)C(OC5OC(CO)C(O)C(O)C5O)C4O)C(O)C3O)C2O)C(O)C1OC1OCC(O)C(O)C1O (some centres unmarked) [SO1861-EMCH],> 500 µM,2500 nM,3000 nM,4000 nM,> 30 µM,> 100 µM,,,
CC(=O)OC1C(C)OC(OC2C(C)OC(OC(=O)[C@]34CCC(C)(C)CC3C3=CCC5[C@@]6(C)CC[C@H](OC7OC(C(=O)O)C(O)C(OC8OCC(O)C(O)C8O)C7OC7OC(CO)C(O)C(O)C7O)[C@@](C)(C=NNC(=O)N7CCN(C(=O)CCCCCN8C(=O)C=CC8=O)CC7)C6CC[C@@]5(C)[C@]3(C)C[C@H]4O)C(OC3OC(C)C(OC4OCC(O)C(OC5OC(CO)C(O)C(O)C5O)C4O)C(O)C3O)C2O)C(O)C1OC1OCC(O)C(O)C1O (some centres unmarked) [SO1861-SC-Mal],250 µM,,,,,> 100 µM,>800 µM,>800 µM,0.6 µM
